In assay [1] the test system is Septoria tritici. The assay can be described thus: G1 Preventative control of leaf blotch on wheat caused by Septoria tritici (Septtr P7), green house. The following applies: wheat sprayed 7 days before inoculation, % diseased leaf area, untreated control 80. Type of assay: in vivo. The protocol:
The spray solutions were prepared in several steps: The stock solution were prepared: a mixture of acetone and/or dimethylsulfoxide and the wetting agent/emulsifier Wettol, which is based on ethoxylated alkylphenoles, in a relation (volume) solvent-emulsifier of 99 to 1 was added to 25 mg of the compound to give a total of 5 ml. Water was then added to total volume of 100 ml. This stock solution was diluted with the described solvent-emulsifier-water mixture to the given concentration. G1 Preventative Control of Leaf Blotch on Wheat Caused by Septoria tritici (Septtr P7) Leaves of pot-grown wheat seedling were sprayed to run-off with an aqueous suspension of the active compound or their mixture, prepared as described. The plants were allowed to air-dry. Seven days later the plants were inoculated with an aqueous spore suspension of Septoria tritici. Then the trial plants were immediately transferred to a humid chamber at 18-22° C. and a relative humidity close to 100%. […] After 4 weeks the extent of fungal attack on the leaves was visually assessed as % diseased leaf area.

A further assay has as its system Phakopsora pachyrhizi. Nature of the assay: G4 Protective control of soy bean rust on soy beans caused by Phakopsora pachyrhizi (Phakpa P2), green house. Type of assay: in vivo. The following applies: soy bean sprayed 2 days before inoculation, % diseased leaf area, untreated control 90.
The test system of assay [2] is Septoria tritici. Nature of the assay: G2 Curative control of leaf blotch on wheat caused by Septoria tritici (Septtr K7), green house. Type of assay: in vivo. The following applies: wheat sprayed 7 days after inoculation (curative), % diseased leaf area, untreated control 80. As to the method:
The spray solutions were prepared in several steps: The stock solution were prepared: a mixture of acetone and/or dimethylsulfoxide and the wetting agent/emulsifier Wettol, which is based on ethoxylated alkylphenoles, in a relation (volume) solvent-emulsifier of 99 to 1 was added to 25 mg of the compound to give a total of 5 ml. Water was then added to total volume of 100 ml. This stock solution was diluted with the described solvent-emulsifier-water mixture to the given concentration. G2 Curative Control of Leaf Blotch on Wheat Caused by Septoria tritici (Septtr K7) Leaves of pot-grown wheat seedling were inoculated with an aqueous spore suspension of Septoria tritici. Then the trial plants were immediately transferred to a humid chamber at 18-22° C. and a relative humidity close to 100%. […] Seven days after inoculation the plants were sprayed to run-off with an aqueous suspension of the active compound or their mixture, prepared as described. […] After 4 weeks the extent of fungal attack on the leaves was visually assessed as % diseased leaf area.

In another assay the test system is Pyricularia oryzae. Type of assay: cell-based. The following applies: microtiter plate, 7 days after inoculation.
The next assay relates to Botrytis cinerea. Nature of the assay: M2 Activity against the grey mold Botrytis cinerea in the microtiterplate test (Botrci). Type of assay: cell-based. As to conditions: microtiter plate, 7 days after inoculation.
In the next assay the test system is Alternaria solani. The assay can be described thus: M3 Activity against early blight caused by Alternaria solani (Alteso), microtest. Type of assay: cell-based. The following applies: microtiter plate, 7 days after inoculation.
The subject of assay [3] is Septoria tritici. The assay can be described thus: M4 Activity against leaf blotch on wheat caused by Septoria tritici (Septtr), microtest. Type of assay: cell-based. The following applies: microtiter plate, 7 days after inoculation.

With `COC(C)(Cn1cncn1)c1ccc(Oc2ccc(Cl)cc2)cc1Cl` (stereo not shown), the “Disease (%) at 16 ppm Septtr P7” value with Septoria tritici [1] is recorded as 80%.

On to `CCC(Cn1cncn1)(OC)c1ccc(Oc2ccc(Cl)cc2)cc1Cl` (stereo not shown), for which the “Disease (%) at 16 ppm Phakpa P2” value in the assay on Phakopsora pachyrhizi came out at 80%.

Consider `CCOC(C)(Cn1cncn1)c1ccc(Oc2ccc(Cl)cc2)cc1Cl` (stereo not shown) [Compound I-1], for which the “Disease (%) at 16 ppm Septtr P7” value in the assay with Septoria tritici [1] is recorded as 40%. Also, the “Disease (%) at 250 ppm Septtr K7” value with Septoria tritici [2] amounted to 10%. For the same molecule, the “Disease (%) at 250 ppm Phakpa P2” value in the assay on Phakopsora pachyrhizi turned out to be 5%. Further, in the assay on Pyricularia oryzae, the “Disease (%) at 0.125 ppm Pyrior” value is 50%. Further, the “Disease (%) at 2 ppm Botrci” value in the assay on Botrytis cinerea was 0%. The “Disease (%) at 0.125 ppm Alteso” value with Alternaria solani is 25%. The “Disease (%) at 0.032 ppm Septtr” value in the assay on Septoria tritici [3] is reported as 5%.

Regarding `CCOC(CC)(Cn1cncn1)c1ccc(Oc2ccc(Cl)cc2)cc1Cl` (stereo not shown) [Compound I-2, 1-[2-[2-chloro-4-(4-chlorophenoxy)phenyl]-2-ethoxy-butyl]-1,2,4-triazole], the “Disease (%) at 16 ppm Phakpa P2” value in the assay with Phakopsora pachyrhizi is reported as 40%.

Consider `CCOC(Cn1cncn1)c1ccc(Oc2ccc(Cl)cc2)cc1Cl` (stereo not shown) [drawing 21], for which the “Disease (%) at 250 ppm Septtr K7” value with Septoria tritici [2] is 40%. For the same molecule, the “Disease (%) at 250 ppm Phakpa P2” value with Phakopsora pachyrhizi was 30%.

On to `CCOC(Cn1cncn1)c1ccc(Oc2ccc(Cl)cc2)cc1Cl` (stereo not shown) [drawing 24], for which, in the assay with Pyricularia oryzae, the “Disease (%) at 0.125 ppm Pyrior” value amounted to 84%. Further, the “Disease (%) at 2 ppm Botrci” value in the assay with Botrytis cinerea stood at 24%. In the assay on Alternaria solani, the “Disease (%) at 0.125 ppm Alteso” value amounted to 44%. In the assay with Septoria tritici [3], the “Disease (%) at 0.032 ppm Septtr” value came to 31%.

The record behind these values is US20140162876A1, “Fungicidal substituted 1--1H-[1,2,4]triazole compounds” (BASF SE, priority 2011, published 2014).
